According to ChEMBL document CHEMBL1201862, “PubChem BioAssay data set” (2004):
Values belong to the molecule of their own block, whether it stands above or below them. Active and inactive are the calls of the source.

Legend:
[1] = molecular target: T1, Sentrin-specific protease 8 (Homo sapiens, UniProt Q96LD8); type: functional
T1 sequence (Q96LD8 whole entry): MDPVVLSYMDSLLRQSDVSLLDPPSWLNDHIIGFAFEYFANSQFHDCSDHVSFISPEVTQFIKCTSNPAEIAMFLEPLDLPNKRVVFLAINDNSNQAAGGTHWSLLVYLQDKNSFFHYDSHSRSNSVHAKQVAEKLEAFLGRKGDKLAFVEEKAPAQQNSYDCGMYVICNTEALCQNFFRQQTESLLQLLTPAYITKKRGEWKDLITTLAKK

Caspase-6 = molecular target: T2, Caspase-6 (Homo sapiens, UniProt P55212); assay: human caspase-6 inhibitors, dose response, biochemical, VEID-R110 fluorescence, cherry-pick (AID 720632)
T2 sequence (P55212 whole entry): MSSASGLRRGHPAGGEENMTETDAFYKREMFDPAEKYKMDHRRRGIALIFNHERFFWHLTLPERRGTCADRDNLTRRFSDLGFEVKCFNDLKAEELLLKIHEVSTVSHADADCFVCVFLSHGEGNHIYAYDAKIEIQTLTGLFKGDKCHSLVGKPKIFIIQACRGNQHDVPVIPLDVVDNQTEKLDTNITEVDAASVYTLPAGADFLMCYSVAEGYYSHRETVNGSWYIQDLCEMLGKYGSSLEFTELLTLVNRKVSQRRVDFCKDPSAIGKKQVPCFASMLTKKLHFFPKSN

Caspase-3 = molecular target: T3, Caspase-3 (Homo sapiens, UniProt P42574); assay: Dose-response confirmation of uHTS inhibitor hits of Sentrin-Specific Protease 8 in a Caspase-3 Fluorescence assay.; type: functional
T3 sequence (P42574 whole entry): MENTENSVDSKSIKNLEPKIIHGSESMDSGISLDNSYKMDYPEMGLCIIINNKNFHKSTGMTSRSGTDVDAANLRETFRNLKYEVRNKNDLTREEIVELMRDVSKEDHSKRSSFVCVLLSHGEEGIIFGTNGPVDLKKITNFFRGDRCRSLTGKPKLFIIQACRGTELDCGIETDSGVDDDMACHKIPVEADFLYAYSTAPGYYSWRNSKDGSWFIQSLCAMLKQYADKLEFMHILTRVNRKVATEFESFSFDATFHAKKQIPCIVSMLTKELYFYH

[2] = molecular target: T1, Sentrin-specific protease 8; type: functional; remark: listed apart in the source
Plasmodium falciparum = assay: growth inhibition of P. falciparum 3D7, dose response, 3D7 strain, red blood cells, SYBR Green, cherry-picked (AID 652047); type: functional
Mu-type opioid receptor = Mu-type opioid receptor (Homo sapiens, UniProt P35372); type: functional, cell-based;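 also: U2OS cells with beta-arrestin recruitment to OPRM1 by beta-gal complementation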
Sequence of Mu-type opioid receptor (P35372 whole entry): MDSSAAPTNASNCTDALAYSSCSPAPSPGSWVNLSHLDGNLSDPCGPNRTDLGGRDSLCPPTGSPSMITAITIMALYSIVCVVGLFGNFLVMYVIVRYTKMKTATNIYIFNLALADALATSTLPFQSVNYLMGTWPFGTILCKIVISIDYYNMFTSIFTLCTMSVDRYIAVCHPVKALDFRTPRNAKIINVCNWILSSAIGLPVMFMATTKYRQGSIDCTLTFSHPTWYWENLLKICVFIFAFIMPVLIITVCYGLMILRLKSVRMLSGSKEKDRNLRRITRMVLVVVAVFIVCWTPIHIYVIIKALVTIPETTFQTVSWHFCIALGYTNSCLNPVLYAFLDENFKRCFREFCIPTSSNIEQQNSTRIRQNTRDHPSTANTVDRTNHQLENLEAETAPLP

[3] = molecular target: 5-hydroxytryptamine receptor 2A (Mus musculus, UniProt P35363); type: functional, cell-based;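 also: CHO-K1 cells with tagged receptor and beta-arrestin; agonist potency measured as compound-induced activation of the receptor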
Sequence of 5-hydroxytryptamine receptor 2A (P35363 whole entry): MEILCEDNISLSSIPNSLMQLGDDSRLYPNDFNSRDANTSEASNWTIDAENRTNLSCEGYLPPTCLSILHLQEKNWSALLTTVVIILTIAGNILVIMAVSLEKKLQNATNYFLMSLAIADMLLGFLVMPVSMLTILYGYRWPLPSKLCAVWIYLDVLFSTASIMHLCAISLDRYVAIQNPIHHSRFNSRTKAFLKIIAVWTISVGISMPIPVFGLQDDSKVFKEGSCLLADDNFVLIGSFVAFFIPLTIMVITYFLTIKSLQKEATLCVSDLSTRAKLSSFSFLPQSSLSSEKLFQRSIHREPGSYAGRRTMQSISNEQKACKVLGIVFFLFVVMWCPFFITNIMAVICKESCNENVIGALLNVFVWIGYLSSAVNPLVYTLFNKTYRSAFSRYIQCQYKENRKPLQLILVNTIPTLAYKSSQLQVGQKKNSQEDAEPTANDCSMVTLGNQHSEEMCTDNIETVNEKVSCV

[4] = lymphoblastoid cell cytotoxicity, dose response, cytotoxicity control, plate reader, dry powder, set 2 (AID 624367); type: functional
[5] = NIH:OVCAR-3 ovarian cancer cell cytotoxicity, dose response, PAX8 inhibitor project, plate reader, dry powder samples (AID 743044); type: functional, cell-based
Paired box protein Pax-8 = Paired box protein Pax-8 (Homo sapiens, UniProt Q06710); assay: inhibitors of PAX8-driven TPO luciferase reporter, dose response, RMG-I cells, cherry-pick (AID 687027); type: functional, cell-based;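 also: luciferase reporter driven by Pax8 target thyroperoxidase promoter measured by SteadyGlo luminescence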
Sequence of Paired box protein Pax-8 (Q06710 whole entry): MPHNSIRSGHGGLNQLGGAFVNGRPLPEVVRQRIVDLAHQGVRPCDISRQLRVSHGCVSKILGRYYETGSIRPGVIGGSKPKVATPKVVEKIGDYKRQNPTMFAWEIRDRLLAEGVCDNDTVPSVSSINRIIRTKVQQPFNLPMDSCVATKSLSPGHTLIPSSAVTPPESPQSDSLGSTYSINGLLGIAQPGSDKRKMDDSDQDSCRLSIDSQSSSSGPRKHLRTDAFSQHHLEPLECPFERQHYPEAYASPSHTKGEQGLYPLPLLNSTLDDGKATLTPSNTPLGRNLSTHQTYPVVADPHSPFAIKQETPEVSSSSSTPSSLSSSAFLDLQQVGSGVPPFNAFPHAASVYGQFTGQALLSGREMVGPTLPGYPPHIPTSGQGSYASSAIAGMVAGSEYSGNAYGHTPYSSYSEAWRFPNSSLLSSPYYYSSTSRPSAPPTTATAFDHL

[6] = IGROV1 ovarian cancer cell cytotoxicity, dose response, PAX8 inhibitor project, plate reader, dry powder samples (AID 743043); type: functional, cell-based; conditions: IGROV-1
[7] = cytotoxicity in OVCAR8 ovarian cancer cells, dose response, PAX8 project, cell-based, plate reader, dry powder samples (AID 743197); type: functional; conditions: OVCAR-8
[8] = inhibitors of CMV-promoter luciferase reporter, dose response, counter-screen for Pax8 inhibitor project, cell-based, HEK293, luminescence, dry powder (AID 743020); type: functional

- AC50 (Caspase-6): 9.77 µM (active)
- IC50 (Caspase-3): 45.5 µM (active)
Compound: CCOCCOc1cc(NCc2ccccc2)c2ncn(C(C)C)c2c1
- IC50 [1]: 8.07 µM (active)
- IC50 [2]: 9.3 µM (active)

Compound: CCCc1cc(C(N)=O)c(NC(=O)c2cc(C)on2)s1
- AbsAC35 (Plasmodium falciparum): 70.04 µM

Compound: CCOC(=O)C1(Cc2ccc(Cl)cc2)CCN(C(C)CCn2cccn2)CC1 (stereo not given)
- EC50 (Mu-type opioid receptor): 92.5 µM (inactive)
- EC50 [3]: 52.2 µM (inactive)

Compound: Cc1noc(C)c1S(=O)(=O)Nc1ccc2c(c1)C(=O)N([C@H](C)CO)C[C@@H](C)[C@@H](CN(C)Cc1ccc(C(F)(F)F)cc1)OCCCC[C@H](C)O2
- AbsAC35 [4]: 47.16 µM
- AC50 [5]: 28 µM (active)
- AC50 (Paired box protein Pax-8): 8.19 µM (active)
- AC50 [6]: 47.1 µM (active)
- AC50 [7]: 46.4 µM (active)

Compound: C[C@@H]1CN([C@H](C)CO)C(=O)c2cc(NC(=O)Nc3ccc(F)cc3)ccc2O[C@@H](C)CCCCO[C@H]1CN(C)Cc1ccc(C(F)(F)F)cc1
- AC50 [5]: 15.8 µM (active)
- AC50 (Paired box protein Pax-8): 4.13 µM (active)
- AC50 [8]: 37.9 µM (active)
